Like-named read-outs stand apart in the source and are kept apart here.
Assays:
neonatal rats [1] = settings: treated rats; day 10 control rats 9.0±0.4 microns
Method: BALF samples, containing 50 nM of PC, were extracted and lipids were dried under nitrogen. Lipid samples were then reconstituted in 1 ml of saline at 37° C. followed by bath sonication. Following one freeze-thaw cycle the vesicle size was determined by dynamic light scattering (21) using a Malvern Mastersizer X (Malvern Instruments Ltd., Worcestershire, United Kingdom).
To even further characterize this relationship, light scattering analysis was performed on liposomes formed from total lipids extracted from BALF.

newborn Wistar rats = settings: high dose, short-term dexamethasone, age of 14 days; cited from earlier work
[2] = freeze fracture analysis; cited from earlier work
neonatal rats [3] = tested on: neonatal rats
Excerpt: Timed-pregnant female Wistar rats and C57/B16 mice were obtained from Charles River (St. Constant, Qc, Canada). All animal protocols were in accordance with Canadian Counsel of Animal Care guidelines and were approved by the Animal Care and Use Committee of the Hospital for Sick Children. Developmental profile: At fetal day 19 and 22 (term=23 days) the pregnant rat was anesthetized and the pups delivered by cesarean section, while postpartum rodents were removed from their mother directly before sacrifice. Dexamethasone treatment: Newborn Wistar rats were injected daily for 4 days with dexamethasone (Sabex, Boucherville, Quebec, Canada) diluted in isotonic saline starting at postnatal day 1 according to previously described protocols (17). Hyperoxia exposure: The oxygen treatment was performed by housing the rat pups with their mother in chambers containing either 21% or 60% oxygen, starting at day 1 until day of lavage (i.e. postnatal day 4, 7, 10 or 14) (18).
After sacrificing the animals, a needle (blunted tip) was inserted through a tracheostomy and the lungs were lavaged with a buffer composed of phosphate-buffered saline augmented with 0.05 mg/ml of 70 kDa dextran-FITC [Molecular probes, Burlington, ON, Canada]. The inert fluorescent marker was included to determine lavage recovery (see FIG. 4e).
BALF samples were spiked with 1 μg of deuterated dipalmitoyl-PC (16:0/16:0PC) (Avanti polar lipids, Alabaster Ala., USA) as an internal standard, and then extracted (19). Lipids were analyzed using an API4000 mass spectrometer [MDS SCIEX, Concord, Ontario, Canada) (20).
To determine the nature of this relationship, BALF samples were examined from two rat models of diminished alveolarization. The two models employed were postnatal exposure to either dexamethasone or 60% oxygen. Postnatal administration of dexamethasone to rats has been described to result in a reduced alveolarization (17, 39-41). In the present study, a high dose, short-term treatment with dexamethasone was used to induce reduced alveolarization in the animal.
Neonatal hyperoxia of mice and rats may also be used to induce diminished alveolarization (18, 42-44).

SMILES: C[C@@H]1C[C@H]2[C@@H]3CCC4=CC(=O)C=C[C@]4(C)[C@@]3(F)[C@@H](O)C[C@]2(C)[C@@]1(O)C(=O)CO [dexamethasone, reference compound]
- average particle size of liposomes formed from BALF lipids (neonatal rats [1]): 13.2±0.7 microns
- parenchymal complexity / lung alveoli compared to controls (newborn Wistar rats): significant decrease in parenchymal complexity

SMILES: CCCCCCCCCCCCCCCC(=O)OC[C@H](COP(=O)([O-])OCC[N+](C)(C)C)OC(=O)CCCCCCCCCCCCCCC [16:0/16:0, Dipalmitoyl Phosphatidylcholine]
- liposome radius compared to palmitoylmyristoyl-PC (16:0/14:0PC) liposomes [2]: three-fold greater radius

SMILES: O=O [60% oxygen, oxygen]
- total PC in BALF (neonatal rats [3]; 60% oxygen from day 1, postnatal day 10): significant reduction
- total PC in BALF (neonatal rats [3]; 60% oxygen from day 1, postnatal day 14): no longer significantly different
- palmitoylmyristoyl-PC (16:0/14:0PC) in BALF (neonatal rats [3]; after 14 days of 60% oxygen exposure, only PC species reduced): significantly reduced
- dipalmitoyl-PC (16:0/16:0PC) content in BALF (neonatal rats [3]; rats exposed to 60% oxygen): reduced
- palmitoylmyristoyl-PC (16:0/14:0PC) content in BALF (neonatal rats [3]; rats exposed to 60% oxygen): reduced
- palmitoylpalmitoleoyl-PC (16:0/16:1PC) content in BALF (neonatal rats [3]; rats exposed to 60% oxygen): reduced
- average particle size of liposomes formed from BALF lipids (neonatal rats [1]): 12.6±0.6 microns

Reference: US20070010429A1, “Phospholipid formulations and uses thereof in lung disease detection and treatment” (The Hospital For Sick Children, priority 2005, published 2007)
